Legend:
[1] = target: GDP-bound HRAS wild-type protein (Homo sapiens, UniProt P01112); experiment: Binding to HRAS by surface plasmon resonance (SPR), Single Cycle Kinetics; conditions: KD ratio, GDP-bound HRAS wild-type vs GDP-bound KRAS wild-type, SPR
[2] = target: GDP-bound NRAS wild-type protein (Homo sapiens, UniProt P01111); experiment: Binding to NRAS by surface plasmon resonance (SPR), Single Cycle Kinetics; conditions: KD ratio, GDP-bound NRAS wild-type vs GDP-bound KRAS wild-type, SPR
GDP-bound NRAS wild-type protein, sequence (P01111 whole entry): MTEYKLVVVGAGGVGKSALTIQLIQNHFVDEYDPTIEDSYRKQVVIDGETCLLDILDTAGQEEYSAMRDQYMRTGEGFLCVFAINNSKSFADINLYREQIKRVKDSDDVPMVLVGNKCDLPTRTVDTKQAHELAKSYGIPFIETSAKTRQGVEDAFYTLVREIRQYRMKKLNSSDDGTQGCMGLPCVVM

GDP-bound HRAS wild-type protein, sequence (P01112 whole entry): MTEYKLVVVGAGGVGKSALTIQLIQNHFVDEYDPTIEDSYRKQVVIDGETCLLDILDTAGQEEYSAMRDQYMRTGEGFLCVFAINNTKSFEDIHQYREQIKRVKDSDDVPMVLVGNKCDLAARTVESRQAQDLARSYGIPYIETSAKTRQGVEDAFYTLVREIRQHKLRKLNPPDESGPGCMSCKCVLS

Structure (SMILES) | HRAS/KRAS (ratio of KD value with respect to HRAS to KD value with respect to KRAS) [1] | NRAS/KRAS (ratio of KD value with respect to NRAS to KD value with respect to KRAS) [2]
CC[C@H](C)[C@@H]1NC(=O)[C@H](CC)N(C)C(=O)C[C@@H](C(=O)N(C)C)N(C)C(=O)[C@H](C2CCCC2)N(C)C(=O)C2(CCC2)NC(=O)[C@@H]2C[C@@H](OC)CN2C(=O)[C@H](CCc2cc(F)c(C(F)(F)F)c(F)c2)NC(=O)CN(C)C(=O)[C@H](Cc2ccc(C(F)(F)F)cc2)N2CC/C=C\C[C@@H](C2=O)N(C)C(=O)CN(C)C1=O [PP1130] | B (a compound having 3 or more and less than 10 is denoted as B) | A (a compound having 10 or more and less than 20 is denoted as A)
CC[C@H](C)[C@@H]1NC(=O)[C@H](CC)N(C)C(=O)C[C@@H](C(=O)N(C)C)N(C)C(=O)[C@H](C2CCCC2)N(C)C(=O)C2(CCC2)NC(=O)[C@@H]2C[C@@H](F)CN2C(=O)[C@H](CCc2cc(F)c(C(F)(F)F)c(F)c2)NC(=O)CN(C)C(=O)[C@H](Cc2ccc(C(F)(F)F)cc2)N2CC/C=C\C[C@@H](C2=O)N(C)C(=O)CN(C)C1=O [PP1131] | B (a compound having 3 or more and less than 10 is denoted as B) | A (a compound having 10 or more and less than 20 is denoted as A)
CC[C@H](C)[C@@H]1NC(=O)[C@H](CC)N(C)C(=O)C[C@@H](C(=O)N(C)C)N(C)C(=O)[C@H](C2CCCC2)N(C)C(=O)C2(CCC2)NC(=O)[C@@H]2C[C@H](F)CN2C(=O)[C@H](CCc2cc(F)c(C(F)(F)F)c(F)c2)NC(=O)CN(C)C(=O)[C@H](Cc2ccc(C(F)(F)F)cc2)N2CC/C=C\C[C@@H](C2=O)N(C)C(=O)CN(C)C1=O [PP1132] | B (a compound having 3 or more and less than 10 is denoted as B) | A (a compound having 10 or more and less than 20 is denoted as A)
CC[C@H](C)[C@@H]1NC(=O)[C@H](CC)N(C)C(=O)C[C@@H](C(=O)N(C)C)N(C)C(=O)[C@H](C2CCCC2)N(C)C(=O)C2(CCC2)NC(=O)[C@@H]2C[C@@H](C(F)(F)F)CN2C(=O)[C@H](CCc2cc(F)c(C(F)(F)F)c(F)c2)NC(=O)CN(C)C(=O)[C@H](Cc2ccc(C(F)(F)F)cc2)N2CC/C=C\C[C@@H](C2=O)N(C)C(=O)CN(C)C1=O [PP1133] | A (a compound having 10 or more and less than 20 is denoted as A) | A (a compound having 10 or more and less than 20 is denoted as A)
CC[C@H](C)[C@@H]1NC(=O)[C@H](CC)N(C)C(=O)C[C@@H](C(=O)N(C)C)N(C)C(=O)[C@H](C2CCCC2)N(C)C(=O)C2(CCC2)NC(=O)[C@@H]2C[C@H](C)CN2C(=O)[C@H](CCc2cc(F)c(C(F)(F)F)c(F)c2)NC(=O)CN(C)C(=O)[C@H](Cc2ccc(C(F)(F)F)cc2)N2CC/C=C\C[C@@H](C2=O)N(C)C(=O)CN(C)C1=O [PP1134] | B (a compound having 3 or more and less than 10 is denoted as B) | A (a compound having 10 or more and less than 20 is denoted as A)
CC[C@H](C)[C@@H]1NC(=O)[C@H](CC)N(C)C(=O)C[C@@H](C(=O)N(C)C)N(C)C(=O)[C@H](C2CCCC2)N(C)C(=O)C2(CCC2)NC(=O)[C@@H]2CCCN2C(=O)[C@H](CCc2cc(F)c(C(F)(F)F)c(F)c2)NC(=O)CN(C)C(=O)[C@H](Cc2ccc(C(F)(F)F)cc2)N2CC/C=C\C[C@@H](C2=O)N(C)C(=O)CN(C)C1=O [PP1135] | A (a compound having 10 or more and less than 20 is denoted as A) | A (a compound having 10 or more and less than 20 is denoted as A)
CC[C@H](C)[C@@H]1NC(=O)[C@H](CC)N(C)C(=O)C[C@@H](C(=O)N(C)C)N(C)C(=O)[C@H](C2CCCC2)N(C)C(=O)C2(CCC2)NC(=O)[C@@H]2CCCCN2C(=O)[C@H](CCc2cc(F)c(C(F)(F)F)c(F)c2)NC(=O)CN(C)C(=O)[C@H](Cc2ccc(C(F)(F)F)cc2)N2CC/C=C\C[C@@H](C2=O)N(C)C(=O)CN(C)C1=O [PP1136] | A (a compound having 10 or more and less than 20 is denoted as A) | A (a compound having 10 or more and less than 20 is denoted as A)
CC[C@H](C)[C@@H]1NC(=O)[C@H](CC)N(C)C(=O)C[C@@H](C(=O)N(C)C)N(C)C(=O)[C@H](C2CCCC2)N(C)C(=O)C2(CCC2)NC(=O)[C@@H]2CSCCN2C(=O)[C@H](CCc2cc(F)c(C(F)(F)F)c(F)c2)NC(=O)CN(C)C(=O)[C@H](Cc2ccc(C(F)(F)F)cc2)N2CC/C=C\C[C@@H](C2=O)N(C)C(=O)CN(C)C1=O [PP1137] | A (a compound having 10 or more and less than 20 is denoted as A) | AA (a compound having 20 or more is denoted as AA)
CC[C@H](C)[C@@H]1NC(=O)[C@H](CC)N(C)C(=O)C[C@@H](C(=O)N(C)C)N(C)C(=O)[C@H](C2CCCC2)N(C)C(=O)C2(CCC2)NC(=O)[C@@H]2COCCN2C(=O)[C@H](CCc2cc(F)c(C(F)(F)F)c(F)c2)NC(=O)CN(C)C(=O)[C@H](Cc2ccc(C(F)(F)F)cc2)N2CC/C=C\C[C@@H](C2=O)N(C)C(=O)CN(C)C1=O [PP1138] | A (a compound having 10 or more and less than 20 is denoted as A) | A (a compound having 10 or more and less than 20 is denoted as A)
CC[C@H](C)[C@@H]1NC(=O)[C@H](CC)N(C)C(=O)C[C@@H](C(=O)N(C)C)N(C)C(=O)[C@H](C2CCCC2)N(C)C(=O)C2(CCC2)NC(=O)[C@@H]2CCN2C(=O)[C@H](CCc2cc(F)c(C(F)(F)F)c(F)c2)NC(=O)CN(C)C(=O)[C@H](Cc2ccc(C(F)(F)F)cc2)N2CC/C=C\C[C@@H](C2=O)N(C)C(=O)CN(C)C1=O [PP1139] | A (a compound having 10 or more and less than 20 is denoted as A) | A (a compound having 10 or more and less than 20 is denoted as A)
CC[C@H](C)[C@@H]1NC(=O)[C@H](CC)N(C)C(=O)C[C@@H](C(=O)N(C)C)N(C)C(=O)[C@H](C2CCCC2)N(C)C(=O)C2(CCC2)NC(=O)[C@H](C)NC(=O)[C@H](CCc2cc(F)c(C(F)(F)F)c(F)c2)NC(=O)CN(C)C(=O)[C@H](Cc2ccc(C(F)(F)F)cc2)N2CC/C=C\C[C@@H](C2=O)N(C)C(=O)CN(C)C1=O [PP1140] | A (a compound having 10 or more and less than 20 is denoted as A) | A (a compound having 10 or more and less than 20 is denoted as A)
CCCN1CC(=O)NC2(CCC2)C(=O)N(C)[C@@H](C2CCCC2)C(=O)N(C)[C@H](C(=O)N(C)C)CC(=O)N(C)[C@@H](CC)C(=O)N[C@@H]([C@@H](C)CC)C(=O)N(C)CC(=O)N(C)[C@H]2C/C=C\CCN(C2=O)[C@@H](Cc2ccc(C(F)(F)F)cc2)C(=O)N(C)CC(=O)N[C@@H](CCc2cc(F)c(C(F)(F)F)c(F)c2)C1=O [PP1141] | A (a compound having 10 or more and less than 20 is denoted as A) | AA (a compound having 20 or more is denoted as AA)

Source: US20250230193A1, “CYCLIC COMPOUND HAVING SELECTIVE KRAS INHIBITORY EFFECT ON HRAS AND NRAS” (CHUGAI SEIYAKU KABUSHIKI KAISHA, priority 2022, published 2025)
